Data on three compounds can be found in EP0972764A1, “Aminoalcohols and aminoketones as CNS active agents” (Universita Degli Studi di Firenze, priority 1998, dated 2000).

In one data set the target is T1, D2 (Dopamine) receptors (Rattus norvegicus, UniProt P61169).
T1 construct: preparation of rat brain membrane enriched in D2 (Dopamine) or S2 (Serotonine) receptors; from tissue; host or cells: rat brain membranes
Briefly: In vitro inhibition of 3H-spiperone binding, D2 assay (rat brain membranes). On the procedure: The compounds I, prepared according to the present invention, were tested in vitro on preparation of rat brain membrane enriched in D2 (Dopamine) or S2 (Serotonine) receptors accordingly known methods to perform inhibition experiments of the binding of ^3H-receptors ligands.
For the D2 assays the method described by Ferretti et al. (Life Sci 42(24):2457-65, 1988) was used.

Data set [1] has as its target T2, S2 (Serotonine) receptors (Rattus norvegicus, UniProt P14842).
T2 construct: preparation of rat brain membrane enriched in D2 (Dopamine) or S2 (Serotonine) receptors; from tissue; host or cells: rat brain membranes
In words: In vitro inhibition of 3H-spiperone binding, S2 assay (rat brain membranes). On the procedure:
The compounds I, prepared according to the present invention, were tested in vitro on preparation of rat brain membrane enriched in D2 (Dopamine) or S2 (Serotonine) receptors accordingly known methods to perform inhibition experiments of the binding of ^3H-receptors ligands. For the S2 receptor assay the method described by List and Seeman (List S.J. and Seeman P. Proc. Natl. Acad. Sci. USA. 78:2620-2624, 1981) was used with slight adaptations.

The nature of data set [2]: First pass cerebral extraction in the rat (blood brain barrier crossing of radiolabelled compound). Format: in vivo. Conditions: intracardiac injection, physiological rCBF range 0.8-1 ml/min/g. The method, then: Compounds I, prepared according to the present invention and containing radioactive isotopes were tested inrespect of their capacity to cross the brain blood barrier, since CNS receptors tracers should be able to pass through the intact blood brain barrier following intravenous injection.
Measures of the rat brain extraction of the compounds was determined following known procedures based on the use of labelled reference substances with known extraction.
In the rat the first pass cerebral extraction of N-benzyl-3-(4-fluoro-2-^125I-iodo-fenil)-hydroxypropylamine [compound I with R1 = H and R2 = Benzyl, Q = single bond Wn = 2-^125I, 4-F, n = 2, A = OH, m = 0, a = single bond] was evaluated measuring the radioactive compounds concentration in the brain, after an intracardiac injection of a mixture of the tested compound, a completely extracted tracer, as the albumin microspheres labelled with ^99mTc (undergoing to a sort of entrapment in the brain microvasculature) and a non extracted tracer as the sodium salt of hortoiodoippuric acid.

T2 sequence (P14842 whole entry): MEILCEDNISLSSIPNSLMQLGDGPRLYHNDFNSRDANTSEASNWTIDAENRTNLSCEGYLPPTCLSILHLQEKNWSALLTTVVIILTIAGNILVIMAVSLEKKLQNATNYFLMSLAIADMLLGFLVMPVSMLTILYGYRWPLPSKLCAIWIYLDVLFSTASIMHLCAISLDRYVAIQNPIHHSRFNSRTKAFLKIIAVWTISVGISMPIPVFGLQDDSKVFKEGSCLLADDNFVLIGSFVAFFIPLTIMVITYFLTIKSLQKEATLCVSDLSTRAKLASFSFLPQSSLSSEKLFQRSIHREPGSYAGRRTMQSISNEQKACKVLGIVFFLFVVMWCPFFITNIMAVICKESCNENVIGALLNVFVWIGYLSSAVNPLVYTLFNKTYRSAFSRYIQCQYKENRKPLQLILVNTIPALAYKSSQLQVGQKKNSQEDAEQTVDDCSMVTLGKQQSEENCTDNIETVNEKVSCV
T1 sequence (P61169 whole entry): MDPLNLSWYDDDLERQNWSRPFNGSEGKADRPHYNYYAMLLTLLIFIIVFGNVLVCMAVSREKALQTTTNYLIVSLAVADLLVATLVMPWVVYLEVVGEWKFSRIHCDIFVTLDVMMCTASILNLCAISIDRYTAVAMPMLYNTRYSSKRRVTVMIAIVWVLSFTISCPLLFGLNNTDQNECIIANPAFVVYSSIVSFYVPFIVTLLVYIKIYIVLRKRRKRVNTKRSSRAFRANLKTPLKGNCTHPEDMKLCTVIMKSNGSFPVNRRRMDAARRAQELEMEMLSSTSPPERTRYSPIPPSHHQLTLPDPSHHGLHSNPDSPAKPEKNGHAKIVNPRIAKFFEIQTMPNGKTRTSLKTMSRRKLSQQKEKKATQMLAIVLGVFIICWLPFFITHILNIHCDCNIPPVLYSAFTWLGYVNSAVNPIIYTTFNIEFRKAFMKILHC

Turning to “2-[3-(4-fluorophenyl)-3-oxopropyl]-tetrahydro-2H-isoindole”, on D2 (Dopamine) receptors (compounds at 10 µM concentration, rat brain membrane, unit not given), the “binding affinity towards D2 receptors (column D2)” value came to 12. The “binding affinity, column T1” value in data set [1] (compounds at 10 µM concentration, rat brain membrane, unit not given, column head T1, text says S2) came out at 65. With `OC(CCNCc1ccccc1)c1ccc(F)cc1Br` (racemic) [N-benzyl-3-(2-bromo-4-fluorophenyl)-3-hydroxypropylamine], the concentration for half-maximal inhibition (IC50) – broadly, the midpoint of a concentration-inhibition curve – was 34 µM at D2 (Dopamine) receptors (inhibition of ^3H-spiperone binding, D2 assay, tested in its racemic form) and 18.7 µM in data set [1] (inhibition of ^3H-spiperone binding, S2 assay, tested in its racemic form). Regarding `OC(CCNCc1ccccc1)c1ccc(F)cc1[125I]` (centres unmarked) [N-benzyl-3-(4-fluoro-2-^125I-iodo-fenil)-hydroxypropylamine], in data set [2], the “cerebral tissue extraction fraction” value is given as “about 50%”.
